Test results as given in patent US20140094484A1, “SUSTAINED DELIVERY FORMULATIONS OF RAPAMYCIN COMPOUNDS” (QLT Inc., priority 2012, published 2014).
pIC50: −log10 of the molar value. “Also recorded” adds a separate entry of the source.

Tests used:
[1] = system: choroidal neovascularization (CNV); assay: Laser-induced CNV rat model, fluorescein angiography evaluation; format: in vivo, Long Evans rats; conditions: for effect on CNV development: intravitreal injection immediately after laser photocoagulation
Method: (§1) Thermal laser infrared light (diode laser 810 nm) at 200 mW for 0.075 seconds was delivered to the fundus of Long Evans rats using a slit lamp and a slit lamp adaptor. A total of 6 lesions with 75 μm diameter were placed in a circular pattern surrounding the optic disc on the posterior pole.
Intravitreal injection was performed immediately after laser photocoagulation. Briefly, three days prior to the injection, 0.3% Ciloxan ointment was applied to the eye once daily. At the time of injection, the eye pocket was irrigated and the conjunctiva swabbed with 1.0% Betadine solution. A 30-gauge needle connected to a […], Hamilton syringe that contained 5 μL carboxymethylcellulose (CMC)-based Rapamycin suspension (0.5, 5, 10 or 40 mg/mL) or CMC vehicle alone was inserted 1 mm posterior to the corneoscleral limbus. The injection began when the bevel of the needle faced down and reached the vitreous about 1-2 mm in depth with the visual aid of a dissecting microscope. After injection, topical 0.3% Ciloxan ointment was applied to the eye once daily for 2 days.
FA was performed on the 14th day after intravitreal injection of Rapamycin. Briefly, a 25-gauge butterfly catheter was placed in the tail vein on an anesthetized animal and a Heparin-Lock solution (0.50 mL of 10,000 IU/mL Heparin Sodium with 0.95 mL 0.9% Saline) was used to fill the catheter line to maintain intravenous access. A dose of 10 mg/kg of Diofluor 10% (Fluorescein Sodium 10%) was delivered through the tail vein, followed by a flush of sterile saline to ensure full delivery of Diofluor 10%. An infusion pump (Becton-Dickinson) connected to a 60 cc syringe was used to infuse the Diofluor 10% at a constant rate of 6 mL/min (8.4-13.2 pounds per square inches) to allow for consistency in the synchronization of the fluorescein bolus injection and the angiogram acquisition. Photographs were taken with a fluorescence fundus camera at 1-10, 30, 60, 90, 180, and 300 sec after Diofluor 10% administration. The leakiness of CNV was assessed by two independent readers masked to the treatment.

[2] = system: choroidal neovascularization (CNV); assay: Laser-induced CNV rat model, histological evaluation (CNV area, CD31 positive cell count); format: in vivo, Long Evans rats
Method: as §1
Intravitreal injection was performed immediately after laser photocoagulation. Briefly, three days prior to the injection, 0.3% Ciloxan ointment was applied to the eye once daily. At the time of injection, the eye pocket was irrigated and the conjunctiva swabbed with 1.0% Betadine solution. […] The injection began when the bevel of the needle faced down and reached the vitreous about 1-2 mm in depth with the visual aid of a dissecting microscope. After injection, topical 0.3% Ciloxan ointment was applied to the eye once daily for 2 days.
Eyes were enucleated and chorioretinal tissues that contained the CNV lesions prepared and fixed for about 18 hours in formic acid alcohol, and then replaced with 70% alcohol until the specimen was processed to wax by a standard method. Slides were stained with mouse anti rat CD31 (Chemicon, UK) by a standard immunohistochemistry protocol. This briefly consisted of removal of endogenous peroxidase enzymes with methanol and hydrogen peroxide, primary antibody as above, and the secondary donkey antibody anti mouse conjugated to biotin. Streptavidin ABC and Vector VIP substrate (Vector labs, Burlingame Calif.) were further added. Haematoxylin was used as a counterstain. Representative images before and after the center of each CNV lesion were taken using the 20× objective of an Olympus BX61 microscope fitted with a Spot RT colour camera (Diagnostic instruments, MI USA). Each image was applied to the standard image analysis macro in the software Image pro to identify the mean of lesion area for each CNV and the mean of CD31 positive cell counts (i.e. endothelial cells) within the CNV lesion area. All measurements were generated by two independent readers masked to the treatments. The data was analyzed in Excel and GraphPad Prism. The 80% correlation found between readers was deemed acceptable.

mTOR = assay: Pharmacodynamic evaluation: Ser235/236 phosphorylation of S6 ribosomal protein in chorioretinal tissues (western blot); format: in vivo, Long Evans rats
Method: Upon euthanasia of the animal, the eyes were cut along the equator, separating the anterior and posterior segments. The vitreous was removed and the remaining back of eye (with intact retina, choroid and sclera) was placed in a labeled Nalgene Cryotube, immediately immersed in liquid nitrogen, and stored at −80° C. until ready to use. Upon lysis, tubes containing tissue were brought to room temperature to thaw. Tissues were lysed in 400 μL of lysis buffer (Cell Signaling CAT #: 9803) with protease inhibitor cocktail (Calbiochem CAT #: 539131) and beads in Matrix D Tubes (Q-biogene, CAT #: 6913-100) in the Fast Prep Instrument. Protein concentration of each sample was determined using the Pierce BCA Protein Determination Kit (Pierce, CAT #: 23225) and BSA as a standard. Samples were analyzed by SDS-PAGE, followed by western blotting. Primary antibodies included antibodies against phosphorylated S6 ribosomal protein, S6 ribosomal protein, and beta-actin antibody. Secondary antibodies included goat anti-Rabbit HRP linked antibodies, or Goat anti-Mouse HRP linked antibodies. Bound antibodies were detected using ECL or ECL plus Western Blotting Reagents. Densitometric evaluation was performed on blots scanned by Bio-Rad Multi-Analyst Software, and analyzed in MS Excel and GraphPad Prism.
Rapamycin inhibits mTOR activity, which then down-regulates Ser235/236 phosphorylation of the downstream target of mTOR, the S6 ribosomal protein. In order to evaluate the pharmacodynamic response of intravitreally administered rapamycin in the eye, the serine phosphorylation of S6 protein extracted from chorioretinal tissues was analyzed by western blot, and standardized by the total amount of S6 protein. […] The inhibitory effect of rapamycin on S6 phosphorylation occurred within the first 24 h and lasted for 7 days post-dosing, the longest follow-up timepoint.

[3] = system: Human umbilical endothelial cells; assay: VEGF-activated endothelial cell proliferation, [3H]-thymidine incorporation; format: cell-based; conditions: [3H]-thymidine incorporation after 48 hours
Method: (§2) Targeted tissue concentrations were estimated from in vitro experiments assessing the inhibitory effects of rapamycin on endothelial cell proliferation and cytokine release from immune cells. Human umbilical endothelial cells were activated with Vascular Endothelial Growth Factor (VEGF) and incubated with various concentrations of rapamycin. Cell proliferation was evaluated by quantifying [3}H-thymidine incorporation after 48 hours. […] The IC50 for the release of TNFalpha from Lipopolysaccharide and IFNgamma treated THP-1 cells (monocytic cell line) was ˜1 nM and the IC50 for the release of IFNgamma from human peripheral blood T cells stimulated with phytohemagglutanin was ˜2 nM.

[4] = system: THP-1 cells (monocytic cell line); assay: TNFalpha release from Lipopolysaccharide and IFNgamma treated THP-1 cells; format: cell-based; conditions: Homo sapiens
Method: as §2

[5] = system: human peripheral blood T cells; assay: IFNgamma release from T cells stimulated with phytohemagglutanin; format: cell-based; conditions: T-cell
Method: as §2

## CC1(C)O[C@@H]2C[C@H]3[C@@H]4CCC5=CC(=O)C=C[C@]5(C)[C@@]4(F)[C@@H](O)C[C@]3(C)[C@]2(C(=O)CO)O1 [triamcinolone acetonide (TA), triamcinolone acetonide]
[1]; intravitreal dose of 200 μg, rat
  incidence of leaky CNV at the 14-day follow-up: 10%
[2]; TA intravitreal 200 μg
  inhibition of CNV area: approximately 50%
  inhibition of endothelial cell count: ~60%

## CO[C@H]1C[C@@H]2CC[C@@H](C)[C@@](O)(O2)C(=O)C(=O)N2CCCC[C@H]2C(=O)O[C@H]([C@H](C)C[C@@H]2CC[C@@H](O)[C@H](OC)C2)CC(=O)[C@H](C)/C=C(\C)[C@@H](O)[C@@H](OC)C(=O)[C@H](C)C[C@H](C)/C=C/C=C/C=C/1C [rapamycin, Rapamycin]
[1]; 5 μg intravitreally injected
  response in the rat CNV model: nearly a complete response
[1]; rat
  effect on CNV development: dose dependent inhibition of CNV development
[1]; rat, listed as Rapamycin
  effect on CNV development: potent inhibitor of CNV; also recorded: inhibited the development of CNV
[1]; single intravitreal injection of 0.5 μg rapamycin in CMC, rat
  incidence of developing leaky CNV 2 weeks after laser photocoagulation: 65%
[1]; single intravitreal injection of 5 μg rapamycin in CMC, rat
  incidence of developing leaky CNV 2 weeks after laser photocoagulation: 5%
[1]; single intravitreal injection of 50 μg rapamycin in CMC, rat
  incidence of developing leaky CNV 2 weeks after laser photocoagulation: 2%
[2]; 0.5 μg intravitreal
  reduction in CNV area compared to the vehicle group: 15%
[2]; 5 μg intravitreal
  reduction in CNV area compared to the vehicle group: 55%
[2]; 50 μg intravitreal
  reduction in CNV area compared to the vehicle group: 50%
[2]; 50 μg, 5 μg and 0.5 μg intravitreal
  overall reduction in the number of endothelial cells within the CNV area compared to the vehicle group: 50-60%
[2]; intravitreal 50, 5, 0.5 μg
  CNV area and number of endothelial cells in the CNV lesions after treatment: reduced after rapamycin treatment in a dose-dependent manner
mTOR; intravitreal, chorioretinal tissues, day 1, 3, 7 post-dosing, vs untreated or vehicle injected eyes
  level of phosphorylated Ser235/236 on S6 ribosomal protein, standardized by total S6 protein: significantly reduced
mTOR; intravitreal, rat
  time within which the inhibitory effect on S6 phosphorylation occurred: ≤ 24 h
mTOR; intravitreal, rat, longest follow-up timepoint
  time the inhibitory effect on S6 phosphorylation lasted post-dosing: 7 days
mTOR; rat model of laser-induced CNV
  activation of its target mTOR: suppressed the activation of its target mTOR at all tested time points
[3]
  pIC50: 7.16
[4]
  pIC50: ~9.00
[5]
  pIC50: ~8.70
